Laboratory results: patent publication US8541670B2, “Compositions and methods for inhibiting tumor cell growth” (priority 2007, dated 2013)
Where no end group is shown, it is not given here. red fluorescent dye = not defined here

Legend:
[1] = test system: the other kinases assayed; test: In vivo selectivity, western blot of phosphorylated substrates, other kinases inhibited in vitro at higher concentrations; parameters: species or system mouse; conditions: versus DMSO hemisphere
Description: To analyze in vivo selectivity, ZaTa was injected into one hemisphere and DMSO in the other hemisphere, as above, and a series of western blot analyses was preformed with phospho-specific antibodies which recognize a phosphorylated substrate or each one of the kinases that ZaTa inhibited at higher concentrations in vitro. […] Given the high functional and structural homology between p70S6K and AKT, the in vivo inhibitory effect of ZaTa on p70S6K was contemplated. Furthermore, the in vivo effect of ZaTa on the phosphorylation levels of substrates for PKA, PKC, CDKs using phospho-specific antibodies recognizing the phosphorylated consensus sites of these kinases was analyzed. In contrast to the consistent decrease in phosphorylation of AKT substrates, significant changes in the phosphorylation level of PKA, PKC and CDKs substrates was not observed after in vivo injection of ZaTa.
(§1) Phosphorylation sites for kinases analyzed herein included Ser-235/236 S6 (a substrate for p70S6K), Tyr-207 CRKL (a substrate for Abl; Zipfel, et al. (2004) supra), Ser-241 PDK1 (a substrate for PI3K), Tyr-1022/1023 JAK1 (a substrate for JAK3; Wang, et al. (2003) supra), Ser-421 Huntingtin (a substrate for SGK; Rangone, et al. (2004) supra), Tyr-783 PLC (a substrate for TrkB; Middlemas, et al. (1994) supra), and Ser-338 cRaf (a substrate for PAK3; King, et al. (1998) supra).

[2] = biological target: AKT-PKAc complex (Mus musculus, UniProt P31750); test: Co-immunoprecipitation of AKT-PKAc complex in N2a cells; format: cell-based; parameters: Neuroblastoma 2a (N2a) neurons expressing an endogenous level of AKT and PKAc; endogenous in cells; host or cells: N2a neuroblastoma cells; conditions: 24-hour treatment
AKT-PKAc complex, sequence (P31750 whole entry, one chain of several): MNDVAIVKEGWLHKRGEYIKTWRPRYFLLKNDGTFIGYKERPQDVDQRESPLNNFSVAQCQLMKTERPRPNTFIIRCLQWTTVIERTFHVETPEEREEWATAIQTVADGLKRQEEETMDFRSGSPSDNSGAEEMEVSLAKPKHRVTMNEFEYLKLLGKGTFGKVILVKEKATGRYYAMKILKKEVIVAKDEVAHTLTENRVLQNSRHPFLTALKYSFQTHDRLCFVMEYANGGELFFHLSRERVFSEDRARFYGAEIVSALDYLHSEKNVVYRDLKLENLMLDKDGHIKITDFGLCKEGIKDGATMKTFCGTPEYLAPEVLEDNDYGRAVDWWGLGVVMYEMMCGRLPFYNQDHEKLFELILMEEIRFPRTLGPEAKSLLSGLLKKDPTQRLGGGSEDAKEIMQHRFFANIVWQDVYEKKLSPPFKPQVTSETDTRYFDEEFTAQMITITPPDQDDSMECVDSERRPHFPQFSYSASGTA
Description: Accordingly, the stability and phenotypic consequences of the AKT-PKAc complex was also analyzed in cultured neurons. N2a cells were treated with vehicle, ZaTa or control peptide for 24 hours. Media was removed after the 24-hour treatment and an equal number of cells from each treatment group was either cultured for another 24 hours without treatment, or lysed and subjected to immunoprecipitation with an antibody against AKT. Those cells cultured for another 24 hours were also harvested and subjected to immunoprecipitation. In parallel, the number of individual neurons with neurites was counted. […] Live images of N2a neurons were captured following treatment with vehicle or ZaTa (2 or 5 μM). […] ZaTa-mediated changes included a progressive loss of neurites, inhibition of new neurite formation, loss of cell motility, as well as formation of large cell colonies.

[3] = biological target: T1, SGK (Homo sapiens, UniProt O00141); test: Cell-based kinase assay, phosphorylation of intracellular substrate (Ser-421 Huntingtin)
T1 construct: endogenous in cells
T1 sequence (O00141 1-431): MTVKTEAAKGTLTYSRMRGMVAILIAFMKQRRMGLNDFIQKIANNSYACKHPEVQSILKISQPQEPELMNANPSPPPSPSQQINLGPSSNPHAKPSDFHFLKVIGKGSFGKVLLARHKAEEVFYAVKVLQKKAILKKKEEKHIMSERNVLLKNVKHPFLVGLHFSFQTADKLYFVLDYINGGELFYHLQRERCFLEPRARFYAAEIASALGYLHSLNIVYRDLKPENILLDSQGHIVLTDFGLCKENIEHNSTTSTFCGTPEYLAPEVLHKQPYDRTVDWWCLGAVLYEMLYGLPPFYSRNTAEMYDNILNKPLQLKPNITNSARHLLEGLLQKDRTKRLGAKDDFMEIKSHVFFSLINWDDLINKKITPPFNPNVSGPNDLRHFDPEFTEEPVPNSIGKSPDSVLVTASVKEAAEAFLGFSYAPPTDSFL
Description: As a specific substrate, the phosphorylation level of GSK-3[…] at Ser-9 was also evaluated. […] The decrease was specific to the AKT phosphorylation site on GSK-3[…] at Ser-9, since a change in the phosphorylation level of GSK-3[…] at Tyr-216 or GSK-3[…] at Tyr-279 was not observed. Moreover, the in vivo reduction of the phosphorylation of AKT substrates was more obvious at the injection site, since a significant change in the phosphorylation of AKT substrates in the frontal cortex or cerebellum between the two hemispheres was not observed. […] To test the specificity/selectivity of ZaTa as the inhibitor of AKT1 versus the other major kinases, a series of in vitro kinase assays was performed at IC50 for AKT1 and at ten times higher concentrations. […]
as §1

Substance | in vivo inhibitory effects on the other kinases assayed [1] | amount of PKAc in physical contact with AKT, N2a cells [2] | inhibition of SGK in cells [3]
AKRVKGRTWTLCGTPEY [ZaTa] | No in vivo inhibitory effects | reduced the amount of PKAc in physical contact with AKT | –
labeled ZaTa: ZaTa peptide labeled with a red fluorescent dye at its N-terminus ({red fluorescent dye}-AKRVKGRTWTLCGTPEY; reading uncertain) | – | – | did not cause inhibition
